Assay results reported in the NIST ThermoML archive (doi:10.1016/j.jct.2005.04.018).

Details: Liquid, Vibrating tube method

CCCCCC[n+]1ccn(C)c1.O=S(=O)([N-]S(=O)(=O)C(F)(F)F)C(F)(F)F
Details | mass density [kg/m3]
298.15 K, 100 kPa | 1370.81
298.15 K, 1830 kPa | 1372.13
298.15 K, 10020 kPa | 1378.18
298.15 K, 14980 kPa | 1381.7
298.15 K, 19750 kPa | 1384.98
298.15 K, 25860 kPa | 1389.1
298.15 K, 31480 kPa | 1392.73
298.15 K, 37770 kPa | 1396.74
298.15 K, 44170 kPa | 1400.64
298.15 K, 50750 kPa | 1404.48
298.15 K, 59590 kPa | 1409.53
299.15 K, 100 kPa | 1369.96
299.15 K, 1830 kPa | 1371.27
299.15 K, 10020 kPa | 1377.3
299.15 K, 14980 kPa | 1380.81
299.15 K, 19750 kPa | 1384.12
299.15 K, 25860 kPa | 1388.22
299.15 K, 31480 kPa | 1391.88
299.15 K, 37770 kPa | 1395.86
299.15 K, 44170 kPa | 1399.77
299.15 K, 50750 kPa | 1403.7
299.15 K, 59590 kPa | 1408.77
300.15 K, 100 kPa | 1368.97
300.15 K, 1830 kPa | 1370.29
300.15 K, 10020 kPa | 1376.36
300.15 K, 14980 kPa | 1379.86
300.15 K, 19750 kPa | 1383.21
300.15 K, 25860 kPa | 1387.32
300.15 K, 31480 kPa | 1391
300.15 K, 37770 kPa | 1395.01
300.15 K, 44170 kPa | 1398.88
300.15 K, 50750 kPa | 1402.84
300.15 K, 59590 kPa | 1407.93
301.15 K, 100 kPa | 1368.11
301.15 K, 1830 kPa | 1369.42
301.15 K, 10020 kPa | 1375.49
301.15 K, 14980 kPa | 1379.01
301.15 K, 19750 kPa | 1382.28
301.15 K, 25860 kPa | 1386.44
301.15 K, 31480 kPa | 1390.11
301.15 K, 37770 kPa | 1394.07
301.15 K, 44170 kPa | 1398.06
301.15 K, 50750 kPa | 1401.99
301.15 K, 59590 kPa | 1407.14
302.15 K, 100 kPa | 1367.15
302.15 K, 1830 kPa | 1368.47
302.15 K, 10020 kPa | 1374.56
302.15 K, 14980 kPa | 1378.1
302.15 K, 19750 kPa | 1381.43
302.15 K, 25860 kPa | 1385.56
302.15 K, 31480 kPa | 1389.24
302.15 K, 37770 kPa | 1393.28
302.15 K, 44170 kPa | 1397.22
302.15 K, 50750 kPa | 1401.19
302.15 K, 59590 kPa | 1406.37
303.15 K, 100 kPa | 1366.24
303.15 K, 1830 kPa | 1367.56
303.15 K, 10020 kPa | 1373.64
303.15 K, 14980 kPa | 1377.17
303.15 K, 19750 kPa | 1380.47
303.15 K, 25860 kPa | 1384.59
303.15 K, 31480 kPa | 1388.3
303.15 K, 44170 kPa | 1396.31
303.15 K, 50750 kPa | 1400.29
303.15 K, 59590 kPa | 1405.51
308.15 K, 100 kPa | 1361.65
308.15 K, 1830 kPa | 1362.96
308.15 K, 10020 kPa | 1369.05
308.15 K, 14980 kPa | 1372.62
308.15 K, 19750 kPa | 1375.95
308.15 K, 25860 kPa | 1380.12
308.15 K, 31480 kPa | 1383.86
308.15 K, 37770 kPa | 1387.93
308.15 K, 44170 kPa | 1391.98
308.15 K, 50750 kPa | 1396.05
308.15 K, 59590 kPa | 1401.4
313.15 K, 100 kPa | 1357.01
313.15 K, 1830 kPa | 1358.32
313.15 K, 10020 kPa | 1364.45
313.15 K, 14980 kPa | 1368.01
313.15 K, 19750 kPa | 1371.36
313.15 K, 25860 kPa | 1375.57
313.15 K, 31480 kPa | 1379.34
313.15 K, 37770 kPa | 1383.47
313.15 K, 44170 kPa | 1387.6
313.15 K, 50750 kPa | 1391.76
313.15 K, 59590 kPa | 1397.25
318.15 K, 100 kPa | 1352.32
318.15 K, 1830 kPa | 1353.62
318.15 K, 10020 kPa | 1359.84
318.15 K, 14980 kPa | 1363.45
318.15 K, 25860 kPa | 1371.1
318.15 K, 31480 kPa | 1374.91
318.15 K, 37770 kPa | 1379.09
318.15 K, 44170 kPa | 1383.28
318.15 K, 50750 kPa | 1387.51
323.15 K, 100 kPa | 1348.05
323.15 K, 1830 kPa | 1349.36
323.15 K, 10020 kPa | 1355.55
323.15 K, 14980 kPa | 1359.13
323.15 K, 19750 kPa | 1362.5
323.15 K, 25860 kPa | 1366.73
323.15 K, 31480 kPa | 1370.56
323.15 K, 37770 kPa | 1374.72
323.15 K, 44170 kPa | 1378.88
323.15 K, 50750 kPa | 1383.17
325.15 K, 100 kPa | 1346.34
325.15 K, 1830 kPa | 1347.7
325.15 K, 10020 kPa | 1354.03
325.15 K, 14980 kPa | 1357.71
325.15 K, 19750 kPa | 1361.18
325.15 K, 25860 kPa | 1365.48
325.15 K, 31480 kPa | 1369.35
325.15 K, 37770 kPa | 1373.57
325.15 K, 44170 kPa | 1377.76
325.15 K, 50750 kPa | 1382.02
327.15 K, 100 kPa | 1344.39
327.15 K, 1830 kPa | 1345.74
327.15 K, 10020 kPa | 1352.05
327.15 K, 14980 kPa | 1355.75
327.15 K, 19750 kPa | 1359.21
327.15 K, 25860 kPa | 1363.58
327.15 K, 31480 kPa | 1367.53
327.15 K, 37770 kPa | 1371.82
327.15 K, 44170 kPa | 1376.09
327.15 K, 50750 kPa | 1380.39
329.15 K, 100 kPa | 1342.33
329.15 K, 1830 kPa | 1343.71
329.15 K, 10020 kPa | 1350.14
329.15 K, 14980 kPa | 1353.87
329.15 K, 19750 kPa | 1357.38
329.15 K, 25860 kPa | 1361.77
329.15 K, 31480 kPa | 1365.68
329.15 K, 37770 kPa | 1369.99
329.15 K, 44170 kPa | 1374.26
329.15 K, 50750 kPa | 1378.59
331.15 K, 100 kPa | 1340.37
331.15 K, 1830 kPa | 1341.75
331.15 K, 10020 kPa | 1348.2
331.15 K, 14980 kPa | 1351.91
331.15 K, 19750 kPa | 1355.44
331.15 K, 25860 kPa | 1359.84
331.15 K, 31480 kPa | 1363.79
331.15 K, 37770 kPa | 1368.1
331.15 K, 44170 kPa | 1372.39
331.15 K, 50750 kPa | 1376.72
333.15 K, 100 kPa | 1338.24
333.15 K, 1830 kPa | 1339.65
333.15 K, 10020 kPa | 1346.2
333.15 K, 14980 kPa | 1349.99
333.15 K, 19750 kPa | 1353.57
333.15 K, 25860 kPa | 1358.01
333.15 K, 31480 kPa | 1361.98
333.15 K, 37770 kPa | 1366.34
333.15 K, 44170 kPa | 1370.63
333.15 K, 50750 kPa | 1374.95
